In ChEMBL document CHEMBL1157418, “Synthesis and antitumor activity evaluations of albumin-binding prodrugs of CC-1065 analog” (Bioorg Med Chem, 2008):
Activity calls are given as the source filed them. The calls are words filed in the database; no cut-off is given here.

How the values were obtained:
[1] = tested on: L1210; assay: Antitumor activity against mouse L1210 cells; assay type: functional, cell-based
[2] = tested on: MC-38; assay: Antitumor activity in BDF1 mouse bearing colon 38 cells assessed as tumor growth inhibition at 0.05 mg/kg, iv daily 4 times for 3 days; assay type: functional; conditions: MC-38, 72 h, read-out: TGI
[3] = tested on: L1210; assay: Cell cycle arrest in mouse L1210 cells by increase in accumulation at S phase at 0.01-0.1 ug/mL after 24 hrs by flow cytometry; assay type: functional, cell-based
[4] = tested on: L1210; assay: Cell cycle arrest in mouse L1210 cells by increase in accumulation at G2/M phase at 0.01-0.1 ug/mL after 24 hrs by flow cytometry; assay type: functional, cell-based
[5] = tested on: L1210; assay: Antitumor activity against mouse L1210 cells assessed as inhibition of [3H]thymidine uptake after 48 hrs; assay type: functional, cell-based
[6] = tested on: L1210; assay: Cell cycle arrest in mouse L1210 cells by increase in accumulation at S phase at 0.1 ug/mL after 12 hrs by flow cytometry; assay type: functional, cell-based
[7] = tested on: MC-38; assay: Antitumor activity in BDF1 mouse bearing colon 38 cells assessed as maximum weight loss at 0.05 mg/kg, iv daily 4 times for 3 days; assay type: functional
[8] = tested on: L1210; assay: Cell cycle arrest in mouse L1210 cells by decrease in accumulation at G1 phase at 0.01-0.1 ug/mL after 24 hrs by flow cytometry; assay type: functional, cell-based
[9] = tested on: L1210; assay: Cell cycle arrest in mouse L1210 cells by accumulation at G2/M phase at 0.1 ug/ml after 24 hrs by flow cytometry; assay type: functional, cell-based
[10] = tested on: SK-OV-3; assay: Antitumor activity against human SKOV3 cells assessed as inhibition of [3H]thymidine uptake after 72 hrs; assay type: functional, cell-based
[11] = tested on: MC-38; assay: Antitumor activity in BDF1 mouse bearing colon 38 cells assessed as cell death at 0.05 mg/kg, iv daily 4 times for 3 days; assay type: functional
[12] = tested on: L1210; assay: Cell cycle arrest in mouse L1210 cells by increase in accumulation at S phase at 0.1 ug/mL after 3 hrs by flow cytometry relative to control; assay type: functional, cell-based
[13] = tested on: L1210; assay: Cell cycle arrest in mouse L1210 cells by accumulation at S phase at 0.1 ug/ml after 24 hrs by flow cytometry; assay type: functional, cell-based
[14] = tested on: SK-OV-3; assay: Anticancer activity in CD1 mouse xenografted with human SKOV3 cells assessed as weight change at 25 mg/kg, ip; assay type: functional; conditions: route intraperitoneal
[15] = tested on: SK-OV-3; assay: Anticancer activity in CD1 mouse xenografted with human SKOV3 cells assessed as tumor growth inhibition at 25 mg/kg, ip; assay type: functional; conditions: SK-OV-3, ip, route intraperitoneal, read-out: TGI
[16] = tested on: L1210; assay: Antitumor activity in BDF1 mouse bearing mouse L1210 cells assessed as increase of life span at 0.05 mg/kg, iv; assay type: functional
[17] = Antitumor activity in BALB/c mouse bearing JC cells assessed as tumor growth inhibition at 0.20 mg/kg, iv daily 4 times for 3 days; assay type: functional; conditions: 72 h, read-out: TGI
[18] = tested on: MC-38; assay: Antitumor activity in BDF1 mouse bearing colon 38 cells assessed as tumor growth inhibition at 0.15 mg/kg, iv daily 4 times for 3 days; assay type: functional; conditions: MC-38, 72 h, read-out: TGI
[19] = tested on: SK-OV-3; assay: Anticancer activity in CD1 mouse xenografted with human SKOV3 cells assessed as tumor growth inhibition at 0.13 mg/kg, iv; assay type: functional; conditions: read-out: TGI
[20] = tested on: MC-38; assay: Antitumor activity in BDF1 mouse bearing colon 38 cells assessed as maximum weight loss at 0.3 mg/kg, iv daily 4 times for 2 days; assay type: functional
[21] = tested on: L1210; assay: Antitumor activity in BDF1 mouse bearing mouse L1210 cells assessed as increase of life span at 0.4 mg/kg, iv; assay type: functional
[22] = Antitumor activity in BALB/c mouse bearing JC cells assessed as tumor growth inhibition at 0.16 mg/kg, iv daily 4 times for 3 days; assay type: functional; conditions: 72 h, read-out: TGI
[23] = Antitumor activity in BALB/c mouse bearing JC cells assessed as maximum weight loss at 0.25 mg/kg, iv daily 4 times for 2 days; assay type: functional
[24] = tested on: L1210; assay: Antitumor activity in BDF1 mouse bearing mouse L1210 cells assessed as increase of life span at 0.1 mg/kg, iv; assay type: functional
[25] = tested on: MC-38; assay: Antitumor activity in BDF1 mouse bearing colon 38 cells assessed as maximum weight loss at 0.15 mg/kg, iv daily 4 times for 3 days; assay type: functional
[26] = tested on: MC-38; assay: Antitumor activity in BDF1 mouse bearing colon 38 cells assessed as tumor growth inhibition at 0.3 mg/kg, iv daily 4 times for 2 days; assay type: functional; conditions: MC-38, 48 h, read-out: TGI
[27] = Antitumor activity in BALB/c mouse bearing JC cells assessed as tumor growth inhibition at 0.25 mg/kg, iv daily 4 times for 2 days; assay type: functional; conditions: 48 h, read-out: TGI
[28] = tested on: SK-OV-3; assay: Anticancer activity in CD1 mouse xenografted with human SKOV3 cells assessed as weight change at 0.13 mg/kg, iv; assay type: functional
[29] = tested on: MC-38; assay: Antitumor activity in BDF1 mouse bearing colon 38 cells assessed as cell death at 0.15 mg/kg, iv daily 4 times for 3 days; assay type: functional
[30] = Antitumor activity in BALB/c mouse bearing JC cells assessed as maximum weight loss at 0.20 mg/kg, iv daily 4 times for 3 days; assay type: functional; conditions: dose 0.2 mg/kg
[31] = Antitumor activity in BALB/c mouse bearing JC cells assessed as cell death at 0.25 mg/kg, iv daily 4 times for 2 days; assay type: functional
[32] = tested on: L1210; assay: Antitumor activity in BDF1 mouse bearing mouse L1210 cells assessed as increase of life span at 0.2 mg/kg, iv; assay type: functional
[33] = Antitumor activity in BALB/c mouse bearing JC cells assessed as cell death at 0.20 mg/kg, iv daily 4 times for 3 days; assay type: functional; conditions: dose 0.2 mg/kg
[34] = Antitumor activity in BALB/c mouse bearing JC cells assessed as maximum weight loss at 0.16 mg/kg, iv daily 4 times for 3 days; assay type: functional
[35] = tested on: MC-38; assay: Antitumor activity in BDF1 mouse bearing colon 38 cells assessed as cell death at 0.3 mg/kg, iv daily 4 times for 2 days; assay type: functional
[36] = Antitumor activity in BALB/c mouse bearing JC cells assessed as cell death at 0.16 mg/kg, iv daily 4 times for 3 days; assay type: functional

CC/C=C\C/C=C\C/C=C\C/C=C\C/C=C\C/C=C\CCC(=O)O [DOCONEXENT]
IC50 [1]: 13 nM

O=C(Nc1ccc2[nH]c(C(=O)N3C[C@@H](CCl)c4c3cc(O)c3ccccc43)cc2c1)c1cc2cc(F)ccc2[nH]1
inhibition in vivo at 0.05 mg/kg [2]: 76% | Activity [3]: Active | Activity [4]: Active | IC50 [5]: 0.17 nM | Activity [6]: Active | Activity [7]: -7% | Activity [8]: Active | Activity [9]: Active | IC50 [10]: 14 nM | IC50 [1]: 0.29 nM | LCK [11]: 0.68 | Activity [12]: Active | Activity [13]: Active

CC(=O)O[C@H]1C(=O)[C@@]2(C)[C@H]([C@H](OC(=O)c3ccccc3)[C@]3(O)C[C@H](OC(=O)[C@H](O)[C@@H](NC(=O)c4ccccc4)c4ccccc4)C(C)=C1C3(C)C)[C@]1(OC(C)=O)CO[C@@H]1C[C@@H]2O [PACLITAXEL]
Activity [14]: -1% | inhibition in vivo at 25 mg/kg [15]: 22%

O=C(CCCCCN1C(=O)C=CC1=O)Oc1cc2c(c3ccccc13)[C@H](CCl)CN2C(=O)c1cc2cc(NC(=O)c3cc4cc(F)ccc4[nH]3)ccc2[nH]1
Activity [16]: 40% | inhibition in vivo at 0.2 mg/kg [17]: 98% | Activity [3]: Active | inhibition in vivo at 0.15 mg/kg [18]: 99% | Activity [4]: Active | inhibition in vivo at 0.13 mg/kg [19]: 52% | IC50 [5]: 25 nM | Activity [6]: Active | Activity [20]: -25% | Activity [8]: Active | Activity [9]: Active | IC50 [10]: 34 nM | Activity [21]: 133% | inhibition in vivo at 0.16 mg/kg [22]: 93% | Activity [23]: -21% | Activity [24]: 51% | Activity [25]: -10% | inhibition in vivo at 0.3 mg/kg [26]: 99% | inhibition in vivo at 0.25 mg/kg [27]: 98% | Activity [28]: -3% | Activity [12]: Active | Activity [13]: Active | LCK [29]: 2.3 | Activity [30]: -23% | LCK [31]: 2 | Activity [32]: 107% | LCK [33]: 1.9 | Activity [34]: -19% | LCK [35]: 2.6 | LCK [36]: 1.5

CCCCCC(=O)O [HEXANOATE]
IC50 [1]: 4.6 nM
